Here are results for one molecule from publication PMC5730406 (European journal of immunology, 2015).

This assay has as its target T1, Itk F434G/Δ429 (Itkas) (Homo sapiens, UniProt Q08881, DEL429-429/F435G).
T1 sequence (Q08881 with tags, fused parts or gaps DEL429-429/F435G): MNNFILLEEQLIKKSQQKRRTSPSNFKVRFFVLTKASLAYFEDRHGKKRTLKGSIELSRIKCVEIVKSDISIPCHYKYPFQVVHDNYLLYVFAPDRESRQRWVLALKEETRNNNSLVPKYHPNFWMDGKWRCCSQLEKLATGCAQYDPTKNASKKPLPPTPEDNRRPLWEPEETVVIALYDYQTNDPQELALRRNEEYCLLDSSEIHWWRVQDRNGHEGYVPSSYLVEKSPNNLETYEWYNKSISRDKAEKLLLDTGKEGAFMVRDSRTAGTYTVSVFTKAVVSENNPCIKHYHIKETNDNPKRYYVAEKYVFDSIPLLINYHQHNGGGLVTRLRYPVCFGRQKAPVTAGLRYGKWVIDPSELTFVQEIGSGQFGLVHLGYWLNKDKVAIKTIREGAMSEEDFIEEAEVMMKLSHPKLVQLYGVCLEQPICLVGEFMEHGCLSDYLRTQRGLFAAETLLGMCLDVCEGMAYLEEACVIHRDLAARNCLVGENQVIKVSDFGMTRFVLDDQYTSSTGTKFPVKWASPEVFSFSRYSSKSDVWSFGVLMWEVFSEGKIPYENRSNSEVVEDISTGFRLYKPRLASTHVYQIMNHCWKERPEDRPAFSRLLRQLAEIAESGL
It counts as cell-based.

Turning to `CC(C)(C)n1nc(Cc2cccc3ccccc23)c2c(N)ncnc21` [1-NM-PP1], the IC50 was roughly 50 nM.

As a reminder, the IC50 is the midpoint of a concentration-inhibition curve.
